# In patent US4228162A (priority 1979, dated 1980):
# Where two headings read alike, the source gives them in different places.
# Experiments:
# [1] = Protocol: The samples were prepared using USP grade aspirin, which was dried at 110° before use. […] Spectrum b was taken after the sample (containing 10% water) was stored at 70° C. for 96 hours.
# [2] = Solubility of aspirin in propylene glycol, polyethylene glycol-400 and dimethyl isosorbide; assay type: physicochemical; conditions: organic solvent or mixture
# Protocol: The bottle was constantly shaken at room temperature for 24 hours. The solution was then filtered for analysis. The determination of aspirin contents in the solubility samples was carried out using a fluorometric technique, in which the aspirin was completely hydrolyzed into salicylic acid, and the fluorescence of salicylic acid was then measured. The concentration of salicylic acid in the samples was determined based on a fluorescence calibration curve of known concentrations of salicylic acid in the range of 5×10^-7 M to 5×10^-6 M. The concentration of salicylic acid so determined was then converted to the concentration of aspirin. The solubility of aspirin in various solvents is expressed in mg/ml. The samples were treated as follows: […] After 30 minutes, when the hydrolysis was complete, 0.5 ml of a 1 N HCl was added to the flask to neutralize the excess sodium hydroxide. The solution was then diluted with a pH 7 phosphate buffer to 25 ml. For fluorescence measurement, 1, 2, 3, and 4 μl of the diluted solution were transferred into different fluorescence cuvettes containing 2 ml of pH 7 buffer. The fluorescence measured from these solutions was then used to determine the aspirin content in the solvents.
# [3] = Hydrolysis (stability) studies of aspirin formulations in dimethyl isosorbide; assay type: physicochemical
# Protocol: No attempt of drying of the drug or the solvent was made prior to the experiment. 25 ml of each of the six formulations were placed in a screw capped bottle which was then kept in a temperature controlled water bath set at a designated temperature. Samples of each of the formulations were pipetted out at selected time intervals, and were immediately analyzed for salicylic acid content. The analysis of salicylic acid was carried out using the fluorometric method previously described. The samples were diluted 1000 times in a volumetric flask, a few μl's of the diluted samples were then transferred into a fluorescence cuvette containing 2 ml of pH 7 buffer for the fluorescence measurement. The hydrolysis studies were carried out at 40, 45, 50, 60 and 70° C. and at room temperature.
# The rate constant of aspirin hydrolysis was determined according to the following equation: […]
# where Co is the initial concentration of aspirin, C, the concentration of aspirin at time t, and k, the rate constant. For practical purposes, the above equation may be converted to […]
# [4] = Arrhenius prediction of aspirin degradation and shelf life; assay type: physicochemical; conditions: 1.00 M aspirin in dimethyl isosorbide
# Protocol: The rate constants determined at various temperatures were used to predict the aspirin degradation at room (25° C.) and refrigeration (5° C.) temperatures using the Arrhenius equation:
# log k=log A-Ea /2.303RT (3)
# where k is the rate constant at temperature T,A, a constant, R, the gas constant, and Ea, the activation energy of the reaction. A plot of log k versus 1/T should yield a straight line with the slope equal to -Ea /2.303R. For the same reaction, Ea is a constant. From the plot, the rate constants at 25° and 5° can also be calculated. These constants can then be used for the prediction of the shelf life (time for 10% degradation) of the aspirin formulations at room and refrigeration temperatures.
# From these values, the shelf-life (time for 10% degradation) of formulation A were predicted to be 230 days at 25° C., and 62.5 months at 5° C.
# [5] = assay type: physicochemical; conditions: dimethyl isosorbide versus propylene glycol and polyethylene glycol-400
# From the text: Ideally, an anhydrous composition is used to prevent hydrolysis.
# [6] = cited from earlier work
# [7] = tested on: gastrointestinal tract; conditions: cited from earlier work
# [8] = cited from earlier work; remark: listed apart in the source
structure (smiles),measurement,setting,value
"CC(=O)Oc1ccccc1C(=O)O [Aspirin, acetylsalicylic acid]",aspirin degradation by nmr,"[1]; 1 M aspirin in dimethyl isosorbide with 10% (v/v) water, 70° C., 96 hours",partially hydrolyzed into salicylic acid and acetic acid
same,nmr spectral change,"[1]; 1 M aspirin in dimethyl isosorbide, no water, heated at 70° for 24 hours",no detectable change was found in the nmr spectrum
same,solubility at 24 h,[2]; dimethyl isosorbide,280 mg/mL
same,solubility at 24 h,"[2]; in polyethylene glycol-400, room temperature, 24 hours",254 mg/mL
same,solubility at 24 h,"[2]; in propylene glycol, room temperature, 24 hours",160 mg/mL
same,cause of aspirin degradation (nmr),[3],hydrolysis is the only cause for aspirin degradation in dimethyl isosorbide
same,kinetic order of aspirin hydrolysis,"[3]; 50° C., FIG. 3",follows second order kinetics
same,Time for 10% Degradation,[4]; 5° C.,62.5 mos.
same,Time for 10% Degradation,[4]; 25° C.,230 days
same,aspirin stability compared between solvents,[5],more stable in dimethyl isosorbide than in the other solvents
same,Time for 10% Degradation,"[6]; 5° C., 0.36 M aspirin in polyethylene glycol-400",2.90 mos.
same,Time for 10% Degradation,"[6]; 5° C., 0.36 M aspirin in propylene glycol",55.8 mos.
same,Time for 10% Degradation,"[6]; 25° C., 0.36 M aspirin in polyethylene glycol-400",18.8 days
same,Time for 10% Degradation,"[6]; 25° C., 0.36 M aspirin in propylene glycol",151.2 days
same,gastrointestinal bleeding,"[7]; aspirin ingestion, users and patients with gastrointestinal lesions",severe gastrointestinal bleeding
same,occult bleeding,[7]; orally in a liquid form or intravenously,produces no occult bleeding
same,mode of decomposition in polyhydric alcohols (nmr),[8]; apparently anhydrous polyhydric alcohols,occurs by transesterification of the acid with the polyhydric alcohol as well as by hydrolysis due to the presence of water
same,hydrolysis kinetics,"[8]; aqueous, Edward",follows first order kinetics and is subject to acid and base catalysis
same,trans-esterification,"[8]; polyethylene glycol-400, prolonged storage, Jun et al",undergoes trans-esterification with polyethylene glycol-400 to form salicylic acid and acetylated polyethylene glycol
